Experimental data reported in ChEMBL document CHEMBL1154258, “Discovery and optimization of potent and selective functional antagonists of the human adenosine A2B receptor” (Bioorg Med Chem Lett, 2009).

Key:
[1] = molecular target: T1, Adenosine receptor A2b (Homo sapiens, UniProt P29275); assay: Antagonist activity at human adenosine A2B receptor expressed in CHOK1 cells assessed as inhibition of calcium mobilization by FLIPR assay; assay type: functional, cell-based, CHO-K1
T1 sequence (P29275 whole entry): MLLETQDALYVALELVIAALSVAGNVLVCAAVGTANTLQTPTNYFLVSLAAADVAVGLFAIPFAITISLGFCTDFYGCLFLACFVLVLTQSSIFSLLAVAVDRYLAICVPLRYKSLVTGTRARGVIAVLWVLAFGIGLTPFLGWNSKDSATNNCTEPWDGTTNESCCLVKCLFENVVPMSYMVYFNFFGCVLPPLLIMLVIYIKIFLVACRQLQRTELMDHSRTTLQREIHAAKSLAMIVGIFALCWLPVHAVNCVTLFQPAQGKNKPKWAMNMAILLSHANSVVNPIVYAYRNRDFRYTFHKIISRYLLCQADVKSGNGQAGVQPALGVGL

[2] = molecular target: Adenosine receptor A2a (Homo sapiens, UniProt P29274); assay: Antagonist activity at human adenosine A2A receptor expressed in CHOK1 cells assessed as inhibition of calcium mobilization by FLIPR assay; assay type: functional, cell-based, CHO-K1
Adenosine receptor A2a, sequence (P29274 whole entry): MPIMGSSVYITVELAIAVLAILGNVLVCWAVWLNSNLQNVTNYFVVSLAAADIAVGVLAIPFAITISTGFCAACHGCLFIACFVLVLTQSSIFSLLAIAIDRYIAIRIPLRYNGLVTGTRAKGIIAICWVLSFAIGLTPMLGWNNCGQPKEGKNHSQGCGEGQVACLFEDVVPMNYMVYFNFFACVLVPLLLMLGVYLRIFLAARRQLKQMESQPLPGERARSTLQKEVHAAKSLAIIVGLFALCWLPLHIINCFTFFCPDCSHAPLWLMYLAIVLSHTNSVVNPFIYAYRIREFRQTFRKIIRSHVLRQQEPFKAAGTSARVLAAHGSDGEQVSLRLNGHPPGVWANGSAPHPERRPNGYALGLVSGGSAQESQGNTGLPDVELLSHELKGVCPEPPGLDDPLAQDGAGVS

[3] = Clearance in po dosed rat; assay type: ADME, organism-based; settings: in vivo
[4] = Oral bioavailability in rat; assay type: ADME, organism-based; settings: in vivo
[5] = Permeability across human Caco-2 cells; assay type: ADME, cell-based; settings: read-out: permeability
[6] = Half life in po dosed rat; assay type: ADME, organism-based; settings: in vivo
[7] = species: Homo sapiens; assay: Protein binding in human plasma; settings: read-out: PPB (converted)
[8] = system: Rattus norvegicus; assay: Volume of distribution in po dosed rat; assay type: ADME, organism-based; settings: in vivo
[9] = molecular target: Voltage-gated inwardly rectifying potassium channel KCNH2 (Homo sapiens, UniProt Q12809); assay: Inhibition of human ERG at 30 uM by patch clamp method
Voltage-gated inwardly rectifying potassium channel KCNH2, sequence (Q12809 whole entry): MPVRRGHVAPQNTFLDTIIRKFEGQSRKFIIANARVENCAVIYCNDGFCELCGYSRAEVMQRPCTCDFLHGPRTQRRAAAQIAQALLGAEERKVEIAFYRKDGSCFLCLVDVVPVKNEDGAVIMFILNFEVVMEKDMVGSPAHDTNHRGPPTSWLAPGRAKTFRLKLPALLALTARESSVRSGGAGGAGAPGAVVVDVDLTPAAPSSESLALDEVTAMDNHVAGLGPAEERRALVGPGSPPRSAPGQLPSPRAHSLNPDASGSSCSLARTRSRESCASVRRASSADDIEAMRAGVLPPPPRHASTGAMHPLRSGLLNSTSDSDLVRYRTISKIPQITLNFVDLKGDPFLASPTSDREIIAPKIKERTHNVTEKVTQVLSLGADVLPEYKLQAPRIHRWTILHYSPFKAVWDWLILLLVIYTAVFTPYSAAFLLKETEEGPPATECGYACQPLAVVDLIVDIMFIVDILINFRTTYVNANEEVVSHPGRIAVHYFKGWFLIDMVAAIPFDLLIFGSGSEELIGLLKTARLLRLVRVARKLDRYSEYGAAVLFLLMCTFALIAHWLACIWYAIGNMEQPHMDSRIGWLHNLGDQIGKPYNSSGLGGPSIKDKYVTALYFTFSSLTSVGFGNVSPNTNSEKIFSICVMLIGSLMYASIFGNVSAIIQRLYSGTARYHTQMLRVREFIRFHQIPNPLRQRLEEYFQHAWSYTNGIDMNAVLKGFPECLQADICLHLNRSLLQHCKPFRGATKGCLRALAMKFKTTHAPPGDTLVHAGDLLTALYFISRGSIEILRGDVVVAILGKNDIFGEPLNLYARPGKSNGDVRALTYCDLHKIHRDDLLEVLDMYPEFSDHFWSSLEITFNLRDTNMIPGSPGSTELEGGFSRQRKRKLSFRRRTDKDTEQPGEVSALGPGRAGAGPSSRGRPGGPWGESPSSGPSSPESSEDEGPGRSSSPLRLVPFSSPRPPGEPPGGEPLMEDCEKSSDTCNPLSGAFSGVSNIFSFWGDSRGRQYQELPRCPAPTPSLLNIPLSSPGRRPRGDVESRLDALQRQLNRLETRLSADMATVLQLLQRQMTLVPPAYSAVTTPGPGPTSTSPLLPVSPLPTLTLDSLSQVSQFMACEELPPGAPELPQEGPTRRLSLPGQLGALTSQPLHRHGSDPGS

[10] = system: Plasma; assay: Clearance in human plasma

Compound	IC50 [1] [nM]	IC50 [2] [nM]	also measured
Cc1ccc(C(=O)c2ncnc3ccsc23)s1	5380	6690	
O=C(c1ccsc1)c1nc(NCc2cccnc2)nc2ccsc12	148	405	
Cc1ccc(C(=O)c2nc(N)nc3ccsc23)s1	758	220	
O=C(c1ccc(Cl)s1)c1nc(NCc2cccnc2)nc2ccsc12	487	1540	
CCNC(=O)c1nc(NCc2cccnc2)nc2ccsc12	120	2520	
Cc1ccc(C(=O)c2nc(NCC3CCCCC3)nc3ccsc23)s1	> 10000	> 10000	
C[C@H](Nc1nc(C(=O)N2CCCC2)c2sccc2n1)c1cccnc1	18	468	CL/F [3]: 43.3 mL/min/kg; bioavailability [4]: 84%; Papp [5]: 33 ×10⁻⁶ cm/s; half-life [6]: 138 min; fraction unbound [7]: 0.15; Vd [8]: 3.9 L/kg; inhibition (INH) [9]: Not Active
CC(C)NC(=O)c1nc(NCc2cccnc2)nc2ccsc12	309	2610	
O=C(c1cccnc1)c1nc(NCc2cccnc2)nc2ccsc12	109	1170	
O=C(c1nccs1)c1nc(NCc2cccnc2)nc2ccsc12	176	732	
CNC(=O)c1nc(NCc2cccnc2)nc2ccsc12	495		
O=C(c1cccs1)c1nc(NCc2cccnc2)nc2ccsc12	18	51	
C[C@@H](Nc1nc(C(=O)N2CCCC2)c2sccc2n1)c1cccnc1	3070	6760	
Cc1ccc(C(=O)c2nc(NC(C)c3ccccn3)nc3ccsc23)s1 (stereo not drawn)	19	118	
Cc1ccc(C(=O)c2nc(NC(C)c3cccnc3)nc3ccsc23)s1 (stereo not drawn)	17	99	
O=C(c1ccncc1)c1nc(NCc2cccnc2)nc2ccsc12	869	1940	
O=C(c1cncs1)c1nc(NCc2cccnc2)nc2ccsc12	148	1720	
CN(C)c1cc2nc(NCc3cccnc3)nc(C(=O)c3cccs3)c2s1	39	1420	
Nc1cc2nc(NCc3cccnc3)nc(C(=O)c3cccs3)c2s1	32	> 10000	
Cc1ccc(C(=O)c2nc(NCc3ccccn3)nc3ccsc23)s1	43	186	
O=C(c1cccs1)c1nc(NCc2cccnc2)nc2cc(Cl)sc12	16	62	

Compound	IC50 [1] [nM]	IC50 [2] [nM]	also measured
Cc1ccc(C(=O)c2nc(NCc3cccnc3)nc3ccsc23)s1	55	990	
Cc1ccc(C(=O)c2nc(NCCc3ccccn3)nc3ccsc23)s1	944	351	
Cc1ccc(C(=O)c2nc(NCCc3cccnc3)nc3ccsc23)s1	450	177	
Cc1ccc(C(=O)c2nc(NCc3cccnc3)nc3ccsc23)o1	468	1250	
CC(Nc1nc(C(=O)N2CCCC2)c2sccc2n1)c1cccnc1 (racemic)	13	2350	
Cc1ccc(C(=O)c2nc(NCc3cccnc3)nc3ccsc23)cc1	215	442	
O=C(NC1CC1)c1nc(NCc2cccnc2)nc2ccsc12	256	710	
O=C(NC1CCCCC1)c1nc(NCc2cccnc2)nc2ccsc12	571		
Cc1ccc(C(=O)c2nc(NCc3ccccc3)nc3ccsc23)s1	5580	7150	
Cc1nc(C(=O)c2ccc(C)s2)c2sccc2n1	> 10000	7850	
CNc1cc2nc(NCc3cccnc3)nc(C(=O)c3cccs3)c2s1	3.5	965	CL [10]: 1.7 L/h/kg; bioavailability [4]: 2%; half-life [6]: 55.8 min; Vd [8]: 2.2 L/kg
O=C(c1nc(NCc2cccnc2)nc2ccsc12)N1CCCC1	189	6140	
O=C(c1ccccc1)c1nc(NCc2cccnc2)nc2ccsc12	511	1620	
Cc1ccc(C(=O)c2nc(N(C)Cc3cccnc3)nc3ccsc23)s1	4140	2270	
Cc1ccc(C(=O)c2nc(NC(C)c3ccccc3)nc3ccsc23)s1 (stereo not drawn)	414	1080	
COc1ccc(C(=O)c2nc(NCc3cccnc3)nc3ccsc23)cc1	1300	637	
CCNc1cc2nc(NCc3cccnc3)nc(C(=O)c3cccs3)c2s1	19	2490	
Cc1ccc(C(=O)c2nc(NCc3ccncn3)nc3ccsc23)s1	92	116	
Cc1ccc(C(=O)c2nc(NC(=O)c3cccnc3)nc3ccsc23)s1	287	161	
CCc1nc(C(=O)c2ccc(C)s2)c2sccc2n1	3670	3850	
CCNc1nc(C(=O)c2ccc(C)s2)c2sccc2n1	1260	126	
